Reference: article PMC2782732 (ACS chemical biology, 2008)

Biological target: dengue E protein (Dengue virus type 2, UniProt P12823)
Assay type: binding
Settings: BOG plus dengue E protein, on-resonance irradiation at −2 ppm

CCCCCCCCO[C@@H]1O[C@H](CO)[C@@H](O)[C@H](O)[C@H]1O [BOG, N-octyl-β-D-glucoside]
STD NMR signal of ligand with E protein: strong signals
